Test results: ChEMBL document CHEMBL4130473, “Design, synthesis and biological evaluation of 4,7,12,12a-tetrahydro-5H-thieno[3',2':3,4]pyrido[1,2-b]isoquinolines as novel adenosine 5'-monophosphate-activated protein kinase (AMPK) indirect activators for the treatment of type 2 diabetes” (Eur J Med Chem, 2017)
Active and inactive are the calls of the source. No cut-off for these calls is given here.

How the values were obtained:
L6 [1] = assay: Stimulation of glucose consumption in rat L6 cells at 20 uM incubated for 12 hrs by glucose assay reagent based glucose oxidase method relative to untreated control; assay type: functional
[2] = target: T1, AMPK alpha2/beta1/gamma1 (Homo sapiens) (UniProt P54646+P54619+Q9Y478); assay: Activation of human recombinant AMPKalpha2beta1gamma1 expressed in Escherichia coli at 50 nM incubated for 1 hr using serine/threonine kinase substrate
T1 sequence (P54619 whole entry partner): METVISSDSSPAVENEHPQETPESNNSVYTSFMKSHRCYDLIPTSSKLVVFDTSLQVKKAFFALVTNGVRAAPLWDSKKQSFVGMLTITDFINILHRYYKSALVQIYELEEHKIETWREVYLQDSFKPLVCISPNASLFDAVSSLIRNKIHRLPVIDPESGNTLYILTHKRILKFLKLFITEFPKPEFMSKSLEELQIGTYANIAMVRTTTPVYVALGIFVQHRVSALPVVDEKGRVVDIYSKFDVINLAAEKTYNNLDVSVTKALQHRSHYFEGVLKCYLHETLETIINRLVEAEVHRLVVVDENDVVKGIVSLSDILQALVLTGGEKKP
T1 sequence (P54646 whole entry): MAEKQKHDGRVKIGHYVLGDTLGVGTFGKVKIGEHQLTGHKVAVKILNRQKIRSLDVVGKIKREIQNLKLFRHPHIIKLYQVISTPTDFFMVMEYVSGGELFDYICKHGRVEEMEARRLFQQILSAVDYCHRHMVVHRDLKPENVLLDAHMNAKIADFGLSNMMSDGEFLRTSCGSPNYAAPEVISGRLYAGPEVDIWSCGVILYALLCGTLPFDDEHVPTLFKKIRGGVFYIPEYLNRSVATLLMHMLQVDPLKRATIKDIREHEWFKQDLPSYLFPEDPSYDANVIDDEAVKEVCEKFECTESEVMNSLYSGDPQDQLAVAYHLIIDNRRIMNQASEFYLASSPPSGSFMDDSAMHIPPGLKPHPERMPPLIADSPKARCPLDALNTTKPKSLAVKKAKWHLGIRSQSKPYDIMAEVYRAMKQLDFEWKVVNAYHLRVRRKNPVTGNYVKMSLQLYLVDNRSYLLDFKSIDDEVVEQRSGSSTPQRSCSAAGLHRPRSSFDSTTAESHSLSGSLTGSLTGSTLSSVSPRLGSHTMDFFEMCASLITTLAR
T1 sequence (Q9Y478 2-270 partner limits assumed): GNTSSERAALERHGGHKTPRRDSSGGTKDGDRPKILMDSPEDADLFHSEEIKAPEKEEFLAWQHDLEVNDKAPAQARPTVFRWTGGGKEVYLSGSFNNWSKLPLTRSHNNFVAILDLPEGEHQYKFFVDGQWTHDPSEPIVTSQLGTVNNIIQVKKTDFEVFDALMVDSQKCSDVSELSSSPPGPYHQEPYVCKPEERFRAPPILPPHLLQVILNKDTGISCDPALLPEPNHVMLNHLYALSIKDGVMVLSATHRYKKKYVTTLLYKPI

[3] = target: T2, AMPK alpha1/beta1/gamma2 (Homo sapiens) (UniProt Q9UGJ0+Q9Y478+Q13131); assay: Activation of human recombinant AMPKalpha1beta1gamma2 expressed in Escherichia coli at 50 nM incubated for 1 hr using serine/threonine kinase substrate
T2 sequence (Q13131 whole entry partner): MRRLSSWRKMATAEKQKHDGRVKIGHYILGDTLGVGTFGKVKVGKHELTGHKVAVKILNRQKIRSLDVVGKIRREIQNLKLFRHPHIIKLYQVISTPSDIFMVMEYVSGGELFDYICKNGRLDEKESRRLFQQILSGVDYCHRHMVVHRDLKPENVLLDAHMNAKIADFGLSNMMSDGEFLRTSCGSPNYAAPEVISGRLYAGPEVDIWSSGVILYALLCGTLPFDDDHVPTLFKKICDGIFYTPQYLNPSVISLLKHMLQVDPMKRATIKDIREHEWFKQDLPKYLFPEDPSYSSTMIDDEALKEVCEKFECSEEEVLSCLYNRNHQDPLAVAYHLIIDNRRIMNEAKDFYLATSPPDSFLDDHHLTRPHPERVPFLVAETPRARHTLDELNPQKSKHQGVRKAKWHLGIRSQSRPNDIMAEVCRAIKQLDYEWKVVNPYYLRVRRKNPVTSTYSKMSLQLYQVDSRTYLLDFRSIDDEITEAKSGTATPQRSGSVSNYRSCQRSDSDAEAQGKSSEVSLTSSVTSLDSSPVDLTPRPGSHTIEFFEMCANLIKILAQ
T2 sequence (Q9UGJ0 whole entry): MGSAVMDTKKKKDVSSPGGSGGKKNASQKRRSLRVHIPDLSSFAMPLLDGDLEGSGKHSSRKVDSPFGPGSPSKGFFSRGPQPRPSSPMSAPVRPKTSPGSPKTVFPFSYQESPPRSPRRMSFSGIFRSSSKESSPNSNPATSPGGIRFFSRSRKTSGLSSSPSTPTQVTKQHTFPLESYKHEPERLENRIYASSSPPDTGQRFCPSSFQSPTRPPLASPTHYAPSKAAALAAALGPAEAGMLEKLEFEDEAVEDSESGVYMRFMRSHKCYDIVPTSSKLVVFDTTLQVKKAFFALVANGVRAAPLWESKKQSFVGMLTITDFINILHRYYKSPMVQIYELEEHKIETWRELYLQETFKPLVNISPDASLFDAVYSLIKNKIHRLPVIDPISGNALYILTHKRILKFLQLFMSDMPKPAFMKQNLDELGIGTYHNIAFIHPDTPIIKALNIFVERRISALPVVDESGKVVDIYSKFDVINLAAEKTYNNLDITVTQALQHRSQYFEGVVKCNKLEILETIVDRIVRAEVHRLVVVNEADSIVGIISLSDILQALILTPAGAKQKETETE
T2 sequence (Q9Y478 2-270 partner limits assumed): as the sequence (Q9Y478 2-270 partner limits assumed) above

[4] = target: T3, AMP-activated protein kinase alpha-1/beta-2/gamma-3 (Homo sapiens) (UniProt O43741+Q13131+Q9UGI9); assay: Activation of human recombinant AMPKalpha1beta2gamma3 expressed in Escherichia coli at 50 nM incubated for 1 hr using serine/threonine kinase substrate
T3 sequence (O43741 whole entry, looked up): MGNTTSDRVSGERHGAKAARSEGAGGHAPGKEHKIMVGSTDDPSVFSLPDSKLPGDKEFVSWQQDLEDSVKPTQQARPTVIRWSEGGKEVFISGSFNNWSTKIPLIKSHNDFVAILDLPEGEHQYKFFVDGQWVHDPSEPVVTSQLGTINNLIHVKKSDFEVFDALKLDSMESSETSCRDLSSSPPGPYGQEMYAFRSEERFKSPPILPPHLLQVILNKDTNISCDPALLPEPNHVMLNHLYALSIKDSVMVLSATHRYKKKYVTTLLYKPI
T3 sequence (Q13131 whole entry, looked up): as the sequence (Q13131 whole entry partner) above
T3 sequence (Q9UGI9 whole entry, looked up): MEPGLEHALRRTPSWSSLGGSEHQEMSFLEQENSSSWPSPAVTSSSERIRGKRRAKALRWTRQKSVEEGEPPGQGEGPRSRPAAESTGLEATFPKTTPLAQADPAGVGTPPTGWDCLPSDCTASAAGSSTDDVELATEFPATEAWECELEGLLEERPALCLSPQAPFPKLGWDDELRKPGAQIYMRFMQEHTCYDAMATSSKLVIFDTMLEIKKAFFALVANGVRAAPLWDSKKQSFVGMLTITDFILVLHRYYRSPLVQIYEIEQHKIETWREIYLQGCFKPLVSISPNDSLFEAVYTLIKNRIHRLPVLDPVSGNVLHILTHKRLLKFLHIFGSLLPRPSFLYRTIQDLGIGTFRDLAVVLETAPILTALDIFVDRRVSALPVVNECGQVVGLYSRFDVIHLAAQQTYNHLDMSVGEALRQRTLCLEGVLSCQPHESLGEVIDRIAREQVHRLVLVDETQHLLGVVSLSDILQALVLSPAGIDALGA

[5] = target: T4, AMP-activated protein kinase alpha-2/beta-2/gamma-2 (Homo sapiens) (UniProt P54646+O43741+Q9UGJ0); assay: Activation of human recombinant AMPKalpha2beta2gamma2 expressed in Escherichia coli at 50 nM incubated for 1 hr using serine/threonine kinase substrate
T4 sequence (O43741 whole entry, looked up): as the sequence (O43741 whole entry, looked up) above
T4 sequence (P54646 whole entry, looked up): as the sequence (P54646 whole entry) above
T4 sequence (Q9UGJ0 whole entry, looked up): as the sequence (Q9UGJ0 whole entry) above

[6] = target: T5, AMPK alpha1/beta2/gamma1 (Homo sapiens) (UniProt O43741+P54619+Q13131); assay: Activation of human recombinant AMPKalpha1beta2gamma1 expressed in Escherichia coli at 50 nM incubated for 1 hr using serine/threonine kinase substrate
T5 sequence (O43741 whole entry, looked up): as the sequence (O43741 whole entry, looked up) above
T5 sequence (P54619 whole entry, looked up): as the sequence (P54619 whole entry partner) above
T5 sequence (Q13131 whole entry, looked up): as the sequence (Q13131 whole entry partner) above

[7] = target: T6, AMP-activated protein kinase (AMPK) alpha-1/beta-1/gamma-1 (Homo sapiens) (UniProt P54619+Q9Y478+Q13131); assay: Activation of human recombinant AMPKalpha1beta1gamma1 expressed in Escherichia coli at 50 nM incubated for 1 hr using serine/threonine kinase substrate
T6 sequence (P54619 whole entry): as the sequence (P54619 whole entry partner) above
T6 sequence (Q13131 whole entry partner): as the sequence (Q13131 whole entry partner) above
T6 sequence (Q9Y478 2-270 partner limits assumed): as the sequence (Q9Y478 2-270 partner limits assumed) above

[8] = target: T7, AMP-activated protein kinase alpha-2/beta-1/gamma-3 (Homo sapiens) (UniProt P54646+Q9Y478+Q9UGI9); assay: Activation of human recombinant AMPKalpha2beta1gamma3 expressed in Escherichia coli at 50 nM incubated for 1 hr using serine/threonine kinase substrate
T7 sequence (P54646 whole entry): as the sequence (P54646 whole entry) above
T7 sequence (Q9UGI9 whole entry partner): as the sequence (Q9UGI9 whole entry, looked up) above
T7 sequence (Q9Y478 2-270 partner limits assumed): as the sequence (Q9Y478 2-270 partner limits assumed) above

[9] = target: T8, AMPK alpha2/beta2/gamma1 (Homo sapiens) (UniProt P54646+O43741+P54619); assay: Activation of human recombinant AMPKalpha2beta2gamma1 expressed in Escherichia coli at 50 nM incubated for 1 hr using serine/threonine kinase substrate
T8 sequence (O43741 whole entry, looked up): as the sequence (O43741 whole entry, looked up) above
T8 sequence (P54619 whole entry, looked up): as the sequence (P54619 whole entry partner) above
T8 sequence (P54646 whole entry, looked up): as the sequence (P54646 whole entry) above

[10] = target: T7, AMP-activated protein kinase alpha-2/beta-1/gamma-3 (Homo sapiens); assay: Activation of human recombinant AMPKalpha2beta1gamma3 expressed in Escherichia coli at 20 uM incubated for 1 hr using serine/threonine kinase substrate
[11] = Inhibition of oxygen consumption rate in isolated mitochondria from rat L6 cells assessed as oxygen consumption level at 5 uM (reference value: 100 +/- 1.9%); assay type: functional; parameters: scale not given: the % may be the effect or the level left
[12] = target: T2, AMPK alpha1/beta1/gamma2 (Homo sapiens); assay: Activation of human recombinant AMPKalpha1beta1gamma2 expressed in Escherichia coli at 20 uM incubated for 1 hr using serine/threonine kinase substrate
L6 [13] = assay: Activation of AMPKalpha in rat L6 cells assessed as increase in ACC phosphorylation incubated for 1 hrs by Western blot method; assay type: cell-based
[14] = target: T4, AMP-activated protein kinase alpha-2/beta-2/gamma-2 (Homo sapiens); assay: Activation of human recombinant AMPKalpha2beta2gamma2 expressed in Escherichia coli at 20 uM incubated for 1 hr using serine/threonine kinase substrate
[15] = target: T8, AMPK alpha2/beta2/gamma1 (Homo sapiens); assay: Activation of human recombinant AMPKalpha2beta2gamma1 expressed in Escherichia coli at 20 uM incubated for 1 hr using serine/threonine kinase substrate
[16] = target: T1, AMPK alpha2/beta1/gamma1 (Homo sapiens); assay: Activation of human recombinant AMPKalpha2beta1gamma1 expressed in Escherichia coli at 20 uM incubated for 1 hr using serine/threonine kinase substrate
L6 [17] = assay: Activation of AMPKalpha in rat L6 cells assessed as increase in AMPKalpha Thr172 phosphorylation incubated for 1 hrs by Western blot method; assay type: cell-based
[18] = target: T6, AMP-activated protein kinase (AMPK) alpha-1/beta-1/gamma-1 (Homo sapiens); assay: Activation of human recombinant AMPKalpha1beta1gamma1 expressed in Escherichia coli at 20 uM incubated for 1 hr using serine/threonine kinase substrate
Hepatocyte [19] = assay: Inhibition of glucose production in Sprague-Dawley rat primary hepatocytes grown under gluconeogenic medium assessed as glucose production level at 5 uM incubated for 6 hrs by glucose assay reagent based glucose oxidase method (reference value: 100%); assay type: functional; parameters: scale not given: the % may be the effect or the level left
L6 [20] = assay: Inhibition of oxygen consumption rate in rat L6 cells; assay type: functional, cell-based
Hepatocyte [21] = assay: Inhibition of glucose production in Sprague-Dawley rat primary hepatocytes grown under gluconeogenic medium assessed as glucose production level at 10 uM incubated for 6 hrs by glucose assay reagent based glucose oxidase method (reference value: 100%); assay type: functional; parameters: scale not given: the % may be the effect or the level left
L6 [22] = assay: Inhibition of oxygen consumption rate in rat L6 cells assessed as oxygen consumption level at 10 uM (reference value: 100 +/- 1.6%); assay type: functional; parameters: scale not given: the % may be the effect or the level left
[23] = Inhibition of oxygen consumption rate in isolated mitochondria from rat L6 cells assessed as oxygen consumption level at 10 uM (reference value: 100 +/- 1.9%); assay type: functional; parameters: scale not given: the % may be the effect or the level left
Hepatocyte [24] = assay: Inhibition of glucose production in Sprague-Dawley rat primary hepatocytes grown under gluconeogenic medium assessed as glucose production level at 20 uM incubated for 6 hrs by glucose assay reagent based glucose oxidase method (reference value: 100%); assay type: functional; parameters: scale not given: the % may be the effect or the level left
L6 [25] = assay: Inhibition of mitochondrial membranes potential in rat L6 cells assessed as mitochondrial membranes potential level at 20 uM incubated for 40 mins by JC1 dye staining based fluorescence assay (reference value: 100 +/- 2.8%); assay type: functional; parameters: scale not given: the % may be the effect or the level left
L6 [26] = assay: Inhibition of oxygen consumption rate in isolated mitochondria from rat L6 cells; assay type: functional
L6 [27] = assay: Inhibition of oxygen consumption rate in rat L6 cells assessed as oxygen consumption level at 20 uM (reference value: 100 +/- 1.6%); assay type: functional; parameters: scale not given: the % may be the effect or the level left
[28] = target: T3, AMP-activated protein kinase alpha-1/beta-2/gamma-3 (Homo sapiens); assay: Activation of human recombinant AMPKalpha1beta2gamma3 expressed in Escherichia coli at 20 uM incubated for 1 hr using serine/threonine kinase substrate
[29] = Inhibition of oxygen consumption rate in isolated mitochondria from rat L6 cells assessed as oxygen consumption level at 1.2 uM (reference value: 100 +/- 1.9%); assay type: functional; parameters: scale not given: the % may be the effect or the level left
[30] = target: T5, AMPK alpha1/beta2/gamma1 (Homo sapiens); assay: Activation of human recombinant AMPKalpha1beta2gamma1 expressed in Escherichia coli at 20 uM incubated for 1 hr using serine/threonine kinase substrate
[31] = Inhibition of oxygen consumption rate in isolated mitochondria from rat L6 cells assessed as oxygen consumption level at 2.5 uM (reference value: 100 +/- 1.9%); assay type: functional; parameters: scale not given: the % may be the effect or the level left
Hepatocyte [32] = assay: Inhibition of glucose production in Sprague-Dawley rat primary hepatocytes grown under gluconeogenic medium incubated for 6 hrs by glucose assay reagent based glucose oxidase method (reference value: 100%); assay type: functional, cell-based

SMILES: COc1ccc2c(c1OC)CN1CCc3sccc3C1C2 (configuration not stated)
- Activity (L6 [1]): 79.5%

SMILES: COc1ccc(OC)c2c1CC1c3cc(CC4CCNCC4)sc3CCN1C2 (configuration not stated)
- Activity (L6 [1]): 103.4%

SMILES: COc1ccc(OC)c2c1CC1c3cc(C(=O)N4CCCC4)sc3CCN1C2 (configuration not stated)
- Activity (L6 [1]): 100.5%

SMILES: c1cc2c(s1)CCN1Cc3cc4c(cc3CC21)OCO4 (configuration not stated)
- Activity (L6 [1]): 102.7%

SMILES: COc1ccc(OC)c2c1CC1c3cc(C=O)sc3CCN1C2 (configuration not stated)
- Activity (L6 [1]): 105.9%

SMILES: O=C(Cc1ccccc1)Nc1ccc2c(c1)CC1c3ccsc3CCN1C2 (configuration not stated)
- Activity (L6 [1]): 120.4%

SMILES: COc1cc2c(cc1O)CN1CCc3sccc3C1C2 (configuration not stated)
- Activity (L6 [1]): 105.2%

SMILES: COc1cc2c(c(OC)c1OC)CN1CCc3sccc3C1C2 (configuration not stated)
- Activity (L6 [1]): 131.1%

SMILES: COc1cc2c(cc1OC)CN1CCc3sccc3C1C2 (configuration not stated)
- Activity (L6 [1]): 114.4%

SMILES: N#Cc1c(O)c2c(-c3ccc(-c4ccccc4O)cc3)csc2[nH]c1=O
- Activity [2]: Active
- Activity [3]: Active
- Activity [4]: inactive
- Activity [5]: inactive
- Activity [6]: inactive
- Activity [7]: Active
- Activity [8]: Active
- Activity [9]: inactive

SMILES: COc1ccc(OC)c2c1CC1c3cc(C(=O)N4CCn5c(nnc5C(F)(F)F)C4)sc3CCN1C2 (configuration not stated)
- Activity (L6 [1]): 93.9%

SMILES: COc1ccc(OC)c2c1CC1c3cc(COC(C)=O)sc3CCN1C2 (configuration not stated)
- Activity (L6 [1]): 107.6%

SMILES: CC(=O)Nc1cc2c(cc1OCc1ccccc1)CN1CCc3sccc3C1C2 (configuration not stated)
- Activity (L6 [1]): 138.5%

SMILES: COc1ccc(OC)c2c1CC1c3ccsc3CCN1C2 (configuration not stated)
- Activity [10]: inactive
- Activity [11]: 63.6%
- Activity [12]: inactive
- Activity (L6 [13]): Dose-dependent effect
- Activity [14]: inactive
- Activity [15]: inactive
- Activity [16]: inactive
- Activity (L6 [17]): Dose-dependent effect
- Activity [18]: inactive
- Activity (Hepatocyte [19]): 56.7%
- inhibition (L6 [20]): Dose-dependent effect
- Activity (Hepatocyte [21]): 46.6%
- Activity (L6 [22]): 92.9%
- Activity (L6 [1]): 178.1%
- Activity [23]: 59.2%
- Activity (Hepatocyte [24]): 26.1%
- Activity (L6 [25]): 81.5%
- inhibition (L6 [26]): Dose-dependent effect
- Activity (L6 [27]): 90.4%
- Activity [28]: inactive
- Activity [29]: 78.9%
- Activity [30]: inactive
- Activity [31]: 69.3%
- inhibition (Hepatocyte [32]): Dose-dependent effect

SMILES: c1cncc(Cc2cc3c(s2)CCN2Cc4ccccc4CC32)c1 (configuration not stated)
- Activity (L6 [1]): 151.9%

SMILES: COc1ccc(OC)c2c1CC1c3cc(C(=O)N4CCOCC4)sc3CCN1C2 (configuration not stated)
- Activity (L6 [1]): 93.2%

SMILES: Cc1ccc(C)c2c1CC1c3ccsc3CCN1C2 (configuration not stated)
- Activity (L6 [1]): 95.6%
